Measured values reported in patent publication US5474988A, “5-phenylpyrrolo-1,4-benzoxazine and 5-phenylpyrrolo-1,4-benzothiazine compounds, process and intermediates for their production and pharmaceutical compositions containing them” (Kali-Chemie Pharma GmbH, priority 1993, dated 1995).

What was measured:
[1] = system: P.A.F.-induced aggregation of blood platelets; experiment: anti-P.A.F. action in vitro (P.A.F.-induced platelet aggregation); assay type: cell-based; conditions: Oryctolagus cuniculus, 10^-5 mole/liter, read-out: Anti-P.A.F. activity in vitro, % inhibition of the P.A.F.-induced aggregation of blood platelets from rabbit blood
Source text: 3. Determination of the anti-P.A.F. action in vitro.
P.A.F. (=Platelet Activating Factor=Platelet Aggregation Factor) is a phospholipid mediator which has a multiplicity of actions. The activation of blood platelet aggregation results in the induction of long-lasting bronchoconstrictions and hyperreactivity of the respiratory passages.
In this test, the effect of the test substances on platelet aggregation induced by addition of P.A.F. in a platelet suspension obtained from rabbit blood was investigated according to the method described by Mikashima et al. (Jap. J. Pharmacol. 44 (1987) 387-391).
A suspension of platelets obtained from rabbit blood was used which contains 4×10^9 platelets/ml in a modified Tyrode buffer solution (=Tyrode solution with the addition of 1.3 mM/l of CaCl2 and 2.5 g/l of gelatine) adjusted to pH 7.4. Tyrode solution is an aqueous solution containing, per liter, 136.9 mmole of NaCl, 2.68 mmole of KCl, 2.31 mmole of CaCl2, 1.0 mmole of MgCl2, 11.9 mmole of NaHCO3, 1.45 mmole of NaH2 PO4 and 5.55 mmole of glucose. The platelets were concentrated from 10 ml blood samples of three rabbits (New Zealand hybrids, body weight 3-4 kg) in each case. To accomplish this, the blood samples were treated with ethylenediaminetetraacetic acid and washed according to the method of Artley et al. (Brit. J. Haematol. 19 (1970), 7-17). A platelet-rich plasma was first separated by centrifugation (20 minutes at 400×g). The platelets were separated from the plasma by repeated centrifugation for 15 minutes at 1400×g.After the centrifugation, the blood platelets remaining in the sediment were resuspended in a Tyrode buffer solution (but without calcium). 0.4 mmole of lysine acetylsalicylate was then added, and the blood platelets were sedimented again after 15 minutes. The sediment was resuspended in the aforementioned modified Tyrode buffer solution, and the number of platelets in the suspension obtained was adjusted to the desired content.
A 40×10^-9 molar P.A.F. solution was employed as a reagent. This solution was prepared from a 1.8×10^-3 molar stock solution in chloroform. To do this, a 10 μl sample of the stock solution was evaporated to dryness and dissolved again in 180 μl of the modified Tyrode buffer solution, to which 0.25% of lipid-free bovine serum albumin had been added. 10^-5 molar working solutions were then prepared from this and stored frozen. Samples of these solutions were appropriately diluted for tests.
In order to carry out the test, 50 μl of the blood platelet suspension and 10 μl of a 40×10^-5 molar solution of the compound to be investigated were added to […] of the modified Tyrode buffer solution with stirring (1000 rpm) in an aggregation tube provided with a small magnetic stirrer. This corresponded to a final test substance concentration of 10^-5 mole/l. After a preincubation time of 90 seconds, 10 μl of the P.A.F. preparation were added. For 4-5 minutes, the aggregation occurring in the aggregation tube was measured by means of a computerized aggregometer.
The aggregation occurring in the test tubes containing only the platelet suspension is rated as 0%. The aggregation occurring in the test tubes containing platelet suspension and P.A.F. preparation, in which a P.A.F.-induced increase in platelet aggregation takes place, is rated as 100%. The aggregation still occurring after addition of the test substances is measured, and from this the inhibition of the P.A.F.-inducedincrease in aggregation which takes place is calculated in %.

5-lipoxygenase = experiment: inhibition of 5-lipoxygenase activity in polymorphonuclear rat leucocytes (LTB4 formation); assay type: cell-based; conditions: 10^-5 mol/l; 22° C.
Source text: 4. In vitro determination of 5-lipoxygenase inhibition. 4a. In vitro determination of inhibition of 5-lipoxygenase activity in polymorphonuclear rat leucocytes. Arachidonic acid contained in cell membranes is released after activiation of the polymorphonuclear leucocytes (=PMN). During the course of this, under the action of the enzyme 5-lipoxygenase (=5-LO) arachidonic acid metabolites are synthesized which can be converted to leucotriene B4 (=LTB4) by LTA4 hydrolase. LTB4 is a principal metabolite of the arachidonic acid metabolism taking place on activation of the enzyme 5-LO by the inflammatory stimulus in the cell membrane. In in vitro systems, this metabolite is secreted from PMNs. […] To accomplish this, the content of LTB4 in a culture medium of rat peritoneal PMNs was determined after stimulation by calcimycin (=calcium-ionophore A23187) such as described by […] et al., Can. J. Physiol. Pharmacol. 67 (1989), 17. A cell suspension containing peritoneal PMNs of male Sprague-Dawley rats (body weight 200 to 250 g) was obtained in a known manner as follows: 6 ml of a solution containing 27.9 g/l of sodium thioglycolate were injected i.p. into the animals in order to induce the PMN invasion due to this inflammatory stimulus. After 22 hours, the animals were sacrificed by means of lethal ether anaesthesia. 20 ml of a Hank's salt solution (=Hank's Balanced Salt Solution=HBSS), but without Ca^++ and Mg^++ ions and with 0.2% by weight of sodium citrate, were then injected into the abdominal cavity. The suspension of accumulated cells was removed from the abdominal cavity and the cells were separated by centrifugation (10 minutes at 400×g). The cells were purified by repeated centrifugation in the presence of Ficoll-Paque®, (=metrizoic acid preparation, […], manufacturer Pharmacia), then washed twice with HBSS containing Ca^++ and Mg^++ ions and resuspended in HBSS containing Ca^ ++ and Mg^++ ions and buffered with 10 mM HEPES (=hydroxyethylpiperazinoethanesulfonic acid). In order to carry out the tests, samples of 0.7 ml of the PMN suspension (=0.5×10^6 cells) in each case were incubated for 15 minutes at 22° C. in plastic tubes containing 10 μM of the test substance in dimethylformamide or, as a control experiment, only containing dimethylformamide. The LTB4 synthesis was initiated in the samples by addition of calcimycin (final concentration 5 μm), and the samples were incubated for 10 minutes at 22° C. Only solvent was added to blank control samples. After 10 minutes, the reaction was terminated by addition of 0.3 ml of cold methanol. The samples were kept for 1 hour at 4° C. and then centrifuged (5 minutes at 10,000×g). The supernatant liquid was investigated to determine its LTB4 content by means of reverse phase high-pressure liquid chromatography (=reverse phase HPLC). […] The LTB4 was identified by comparison with authentic standard solutions eluting at the same time and determined at a wavelength of 270 nm. The LTB4 contents are determined from comparison with calibrated standard solutions, and from this the inhibitory activity of the test substances was calculated in % inhibition of the LTB4 synthesis in comparison with the control samples containing no test substance.

Row | SMILES | inhibition at 10 µM [1] [%] | In vitro inhibitory activity on LTB4 formation in rat PMNs stimulated by calcium ionophore A23187 (5-lipoxygenase) [%]
1 | COc1ccc(-c2c(C)c3cccc4c3n2CC(CCN2CCN(c3cc(C)ccn3)CC2)O4)cc1 (stereo not drawn) [Example 1, 2,3-dihydro-5-(4-methoxyphenyl)-6-methyl-2-[2-(4-(4-methylpyridin-2-yl)piperazin-1-yl)ethyl]pyrrolo[1,2,3-de]-1,4-benzoxazine] | 80 | –
2 | Cc1ccnc(N2CCN(CCC3Cn4c(-c5ccc(O)cc5)c(C)c5cccc(c54)O3)CC2)c1 (stereo not drawn) [Example 2, 2,3-Dihydro-5-(4-hydroxyphenyl)-6-methyl-2-[2-(4-(4-methylpyridin-2-yl)piperazin-1-yl)ethyl]pyrrolo[1,2,3-de]-1,4-benzoxazine] | 97 | 89
3 | COc1ccc(-c2c(C)c3cccc4c3n2CC(CCC(=O)N2CCN(c3cc(C)ccn3)CC2)O4)cc1 (stereo not drawn) [Example 6, 2,3-Dihydro-5-(4-methoxyphenyl)-6-methyl-2-[3-(4-(4-methylpyridin-2-yl)piperazin-1-yl)-3-oxopropyl]pyrrolo[1,2,3-de]-1,4-benzoxazine] | 100 | –
4 | Cc1ccnc(N2CCN(CC3Cn4c(-c5ccc(O)cc5)c(C)c5cccc(c54)O3)CC2)c1 (stereo not drawn) [Example 14] | 100 | 90
5 | Cc1c(-c2ccc(O)cc2)n2c3c(cccc13)OC(CCN1CCN(c3ccc(F)cc3)CC1)C2 (stereo not drawn) [Example 24] | – | 73
6 | Cc1cccnc1N1CCN(C(=O)CCC2Cn3c(-c4ccc(O)cc4)c(C)c4cccc(c43)O2)CC1 (stereo not drawn) [Example 37] | 48 | 100
7 | Cc1ccnc(N2CCN(CCC3Cn4c(-c5cc(C)c(O)c(C)c5)c(C)c5c(Cl)ccc(c54)O3)CC2)c1 (stereo not drawn) [Example 48] | 69 | –
8 | COc1ccc(-c2c(C)c3c(F)ccc4c3n2CC(CCN2CCN(c3cc(C)ccn3)CC2)O4)cc1 (stereo not drawn) [Example 51] | 65 | –
9 | COc1ccc(-c2c(C)c3cccc4c3n2CC(CCN2CCN(c3cc(C)ccn3)CC2)O4)cc1O (stereo not drawn) [Example 52] | – | 53
10 | Cc1ccc(N2CCN(CCCC3Cn4c(-c5ccc(O)cc5)c(C)c5cccc(c54)O3)CC2)nc1 (stereo not drawn) [Example 55] | – | 63
11 | Cc1c(-c2ccc(O)cc2)n2c3c(cccc13)OC(CCCN1CCN(c3ccccn3)CC1)C2 (stereo not drawn) [Example 56] | – | 76
12 | Cc1cccc(N2CCN(C(=O)CCC3Cn4c(-c5ccc(O)cc5)c(C)c5cccc(c54)O3)CC2)n1 (stereo not drawn) [Example 57] | – | 85
13 | Cc1cccc(N2CCN(CCCC3Cn4c(-c5ccc(O)cc5)c(C)c5cccc(c54)O3)CC2)n1 (stereo not drawn) [Example 58] | – | 54
14 | Cc1ccnc(N2CCN(CCCCC3Cn4c(-c5cc(C)c(O)c(C)c5)c(C)c5cccc(c54)S3)CC2)c1 (stereo not drawn) [Example 63] | 80 | –
15 | COc1ccc2c3c1c(C)c(-c1ccc(O)cc1)n3CC(CCC(=O)N1CCN(c3cc(C)ccn3)CC1)O2 (stereo not drawn) [Example 68] | 96 | 90
16 | Cc1ccnc(N2CCN(CCC3Cn4c(-c5ccc(O)cc5)c(C)c5c(C)cc(C)c(c54)O3)CC2)c1 (stereo not drawn) [Example 70] | 93 | 68
